# From US20040247699A1, “Method for the prevention or treatment of overweight in mammals” (priority 2002, published 2004)
# Experiment: Effects on physical activity (ambulatory counts)
# Conditions: 12.5 mg caffeine per kg rat oral, period when rats are normally asleep
# Method: In the study as described in example 1, the physical activity of the animals was determined by monitoring ambulatory counts.
# The effects of caffeine on physical activity was tested in rats and compared to placebo (water). In a placebo controlled cross-over design as described in example 1, the effects of administration of either 12.5 mg caffeine per kg of rat or water on physical activity was determined. Physical activity of the animals was determined by monitoring ambulatory counts.
# Results are shown as the average ambulatory counts per 26 minutes.
structure (smiles),measurement,value
Cn1c(=O)c2c(ncn2C)n(C)c1=O [caffeine],ambulatory counts per 26 minutes compared to placebo,ambulatory counts increase
